Test results published in ChEMBL document CHEMBL3885881, “DrugMatrix”.

Species on record: Rattus norvegicus
Assay: DrugMatrix - Regimen: Daily Repeat
Format: toxicity, organism-based, Sprague-Dawley
Set-up: regimen Daily Repeat, gender Male, age 6-8 weeks
Conditions: in vivo, po, route oral GAVAGE, vehicle .5 % CMC; for BASOPHIL / EOSINOPHIL / ERYTHROCYTE COUNT / HEMATOCRIT / HEMOGLOBIN / LYMPHOCYTE / MEAN CORPUSCULAR HEMOGLOBIN / MEAN CORPUSCULAR HEMOGLOBIN CONCENTRATION / MEAN CORPUSCULAR VOLUME / MONOCYTE / NEUTROPHIL / PLATELET COUNT: tissue Blood; for ALANINE AMINOTRANSFERASE / ALBUMIN / ALKALINE PHOSPHATASE / ASPARTATE AMINOTRANSFERASE / BLOOD UREA NITROGEN / CHOLESTEROL / CREATINE PHOSPHOKINASE / CREATININE / GLUCOSE / PHOSPHORUS / POTASSIUM / SODIUM / TOTAL BILIRUBIN / TOTAL PROTEIN: tissue Plasma
[1] = 0 mg/kg, 72 h, dose level Control, time 3 day
[2] = 0 mg/kg, 120 h, dose level Control, time 5 day
[3] = 20 mg/kg, 72 h, dose level Low, time 3 day
[4] = 20 mg/kg, 120 h, dose level Low, time 5 day

## CN(C)CCC=C1c2ccccc2COc2ccccc21 [DOXEPIN]
[1]
  BASOPHIL: 0%
  EOSINOPHIL: 0.33%
  ERYTHROCYTE COUNT: 6.2 x10E6/uL
  HEMATOCRIT: 38.08%
  HEMOGLOBIN: 14.92 G/DL
  LYMPHOCYTE: 76%
  MEAN CORPUSCULAR HEMOGLOBIN: 24.1 pg
  MEAN CORPUSCULAR HEMOGLOBIN CONCENTRATION: 39.17 G/DL
  MEAN CORPUSCULAR VOLUME: 61.48 fL
  MONOCYTE: 3.83%
  NEUTROPHIL: 19.83%
  PLATELET COUNT: 1327.5 x10E3/uL
  ALANINE AMINOTRANSFERASE: 40.17 u/L
  ALBUMIN: 4.07 G/DL
  ALKALINE PHOSPHATASE: 372 u/L
  ASPARTATE AMINOTRANSFERASE: 67.17 u/L
  BLOOD UREA NITROGEN: 18.83 mg/dL
  CHOLESTEROL: 78.17 mg/dL
  CREATINE PHOSPHOKINASE: 149.17 u/L
  CREATININE: 0.57 mg/dL
  GLUCOSE: 185.17 mg/dL
  PHOSPHORUS: 11.43 mg/dL
  POTASSIUM: 6.78 MEQ/L
  SODIUM: 152.83 MEQ/L
  TOTAL BILIRUBIN: 0.4 mg/dL
  TOTAL PROTEIN: 6.87 G/DL
[2]
  BASOPHIL: 0%
  EOSINOPHIL: 0%
  ERYTHROCYTE COUNT: 6.05 x10E6/uL
  HEMATOCRIT: 36.55%
  HEMOGLOBIN: 14.7 G/DL
  LYMPHOCYTE: 86.83%
  MEAN CORPUSCULAR HEMOGLOBIN: 24.37 pg
  MEAN CORPUSCULAR HEMOGLOBIN CONCENTRATION: 40.32 G/DL
  MEAN CORPUSCULAR VOLUME: 60.47 fL
  MONOCYTE: 0.83%
  NEUTROPHIL: 12.33%
  PLATELET COUNT: 1177 x10E3/uL
  ALANINE AMINOTRANSFERASE: 41.83 u/L
  ALBUMIN: 3.75 G/DL
  ALKALINE PHOSPHATASE: 377.5 u/L
  ASPARTATE AMINOTRANSFERASE: 60.83 u/L
  BLOOD UREA NITROGEN: 16 mg/dL
  CHOLESTEROL: 67.83 mg/dL
  CREATINE PHOSPHOKINASE: 120.33 u/L
  CREATININE: 0.6 mg/dL
  GLUCOSE: 167.67 mg/dL
  PHOSPHORUS: 10.03 mg/dL
  POTASSIUM: 6.68 MEQ/L
  SODIUM: 150.5 MEQ/L
  TOTAL BILIRUBIN: 0.57 mg/dL
  TOTAL PROTEIN: 6.25 G/DL
[3]
  BASOPHIL: 0%
  EOSINOPHIL: 0%
  ERYTHROCYTE COUNT: 5.9 x10E6/uL
  HEMATOCRIT: 36.4%
  HEMOGLOBIN: 14.15 G/DL
  LYMPHOCYTE: 83%
  MEAN CORPUSCULAR HEMOGLOBIN: 24 pg
  MEAN CORPUSCULAR HEMOGLOBIN CONCENTRATION: 38.9 G/DL
  MEAN CORPUSCULAR VOLUME: 61.75 fL
  MONOCYTE: 0%
  NEUTROPHIL: 17%
  PLATELET COUNT: 1287.5 x10E3/uL
  ALANINE AMINOTRANSFERASE: 38.33 u/L
  ALBUMIN: 3.6 G/DL
  ALKALINE PHOSPHATASE: 352.33 u/L
  ASPARTATE AMINOTRANSFERASE: 56.67 u/L
  BLOOD UREA NITROGEN: 11.67 mg/dL
  CHOLESTEROL: 72.67 mg/dL
  CREATINE PHOSPHOKINASE: 139.33 u/L
  CREATININE: 0.53 mg/dL
  GLUCOSE: 179.67 mg/dL
  PHOSPHORUS: 11.8 mg/dL
  POTASSIUM: 6.33 MEQ/L
  SODIUM: 150 MEQ/L
  TOTAL BILIRUBIN: 0.2 mg/dL
  TOTAL PROTEIN: 5.83 G/DL
[4]
  BASOPHIL: 0%
  EOSINOPHIL: 0%
  ERYTHROCYTE COUNT: 6.16 x10E6/uL
  HEMATOCRIT: 37.07%
  HEMOGLOBIN: 14.67 G/DL
  LYMPHOCYTE: 91.67%
  MEAN CORPUSCULAR HEMOGLOBIN: 23.87 pg
  MEAN CORPUSCULAR HEMOGLOBIN CONCENTRATION: 39.57 G/DL
  MEAN CORPUSCULAR VOLUME: 60.23 fL
  MONOCYTE: 0.33%
  NEUTROPHIL: 8%
  PLATELET COUNT: 1231.33 x10E3/uL
  ALANINE AMINOTRANSFERASE: 36 u/L
  ALBUMIN: 3.67 G/DL
  ALKALINE PHOSPHATASE: 311.33 u/L
  ASPARTATE AMINOTRANSFERASE: 55.67 u/L
  BLOOD UREA NITROGEN: 12.67 mg/dL
  CHOLESTEROL: 71.33 mg/dL
  CREATINE PHOSPHOKINASE: 153 u/L
  CREATININE: 0.6 mg/dL
  GLUCOSE: 161.33 mg/dL
  PHOSPHORUS: 12.47 mg/dL
  POTASSIUM: 6.8 MEQ/L
  SODIUM: 151.67 MEQ/L
  TOTAL BILIRUBIN: 0.43 mg/dL
  TOTAL PROTEIN: 6.17 G/DL
